Laboratory results as given in PMC5131886 (CPT: Pharmacometrics & Systems Pharmacology, 2016).
“And” between values parts separate entries of the source, which are not always exact repeats. Identical values can stand only once.

Legend:
sVEGFR2 = assay: PD indirect response modeling of sVEGFR2 plasma concentrations; format: in vivo, human; conditions: HCC patients, following treatment, mean baseline 15.7 µg/L
hepatocellular carcinoma [1] = assay: Time-to-tumor progression in HCC patients; format: in vivo, human; conditions: 37.5 mg q.d. with TACE (doxorubicin)
HCC tumors = assay: Tumor volume by DCE-MRI in HCC patients; format: in vivo, human; conditions: duration of the trial, vs baseline
[2] = Hematological toxicities in the phase II pilot study; format: in vivo, human; conditions: HCC patients, 37.5 mg q.d.
[3] = cited from earlier work
plasma protein = conditions: cited from earlier work
hepatocellular carcinoma [4] = conditions: 50 mg q.d. in 4/2 weeks schedule, advanced HCC; cited from earlier work
hepatocellular carcinoma [5] = conditions: phase III, HCC patients, compared to sorafenib; cited from earlier work
VEGFR = conditions: cited from earlier work

| SMILES | observed plasma concentrations of sVEGFR2 (sVEGFR2) | median observed TTP (hepatocellular carcinoma [1]) | HCC tumor volumes under treatment (HCC tumors) | hematological toxicities [2] | Q/Fperipheral, intercompartmental clearance (RSE%) ([3]; fixed to literature value) | V2/Fperipheral, peripheral volume of distribution (RSE%) ([3]; fixed to literature value) | ka, first-order absorption rate constant (RSE%) ([3]; fixed to literature value) | fM, fraction of drug metabolized into the active metabolite SU12662 ([3]; fixed) | fb, bound fraction to plasma protein (plasma protein) | median TTP (hepatocellular carcinoma [4]) | primary overall survival endpoint (hepatocellular carcinoma [5]) | toxicities (hepatocellular carcinoma [5]) | potency relative to parent drug (VEGFR) |
| --- | --- | --- | --- | --- | --- | --- | --- | --- | --- | --- | --- | --- | --- |
| CCN(CC)CCNC(=O)c1c(C)[nH]c(/C=C2\C(=O)Nc3ccc(F)cc32)c1C [Sunitinib, Sunitinib malate] | gradually decreased over time | 7 months and 8 months | remained relatively unchanged compared to their baseline values | absence of hematological toxicities | 6.37 (18) L/h | 588 (8.7) L | 0.195 (6.8) 1/h | 0.21 | 0.9 | 5.3 months | failed its primary OS endpoint | more frequent toxicities than sorafenib | – |
| CCNCCNC(=O)c1c(C)[nH]c(/C=C2\C(=O)Nc3ccc(F)cc32)c1C [SU12662] | – | – | – | – | 27.7 (26) L/h | 345 (22) L | – | – | 0.95 | – | – | – | equipotent to the parent drug |
